14 compounds from patent US8101619B2, “Phenylpiperazine derivatives with a combination of partial dopamine-D2 receptor agonism and serotonin reuptake inhibition” (Solvay Pharmaceuticals B.V., priority 2004, dated 2012) can be followed below.

Counter-ions that a name gives are not always drawn.

The target of series [1] is T1, dopamine-D2 receptors (Rattus norvegicus, UniProt P61169).
T1 construct: labels dopamine receptors in rat pituitary and brain; from tissue
Description: In vitro affinity for dopamine-D2 receptors ([3H]-spiroperidol receptor binding assay). The settings on record: read-out: Dopamine-D2 binding pKi (converted). The method, then:
In Vitro Affinity for Dopamine-D2 Receptors
Affinity of the compounds for dopamine-D2 receptors was determined using the receptor binding assay described by 1. Creese, R. Schneider and S. H. Snyder: “[^3H]-Spiroperidol labels dopamine receptors in rat pituitary and brain”, Eur. J. Pharmacol., 46, 377-381, 1977.

The target of series [2] is T2, serotonin reuptake sites (Rattus norvegicus, UniProt P31652).
T2 construct: from tissue
T2 sequence (P31652 whole entry): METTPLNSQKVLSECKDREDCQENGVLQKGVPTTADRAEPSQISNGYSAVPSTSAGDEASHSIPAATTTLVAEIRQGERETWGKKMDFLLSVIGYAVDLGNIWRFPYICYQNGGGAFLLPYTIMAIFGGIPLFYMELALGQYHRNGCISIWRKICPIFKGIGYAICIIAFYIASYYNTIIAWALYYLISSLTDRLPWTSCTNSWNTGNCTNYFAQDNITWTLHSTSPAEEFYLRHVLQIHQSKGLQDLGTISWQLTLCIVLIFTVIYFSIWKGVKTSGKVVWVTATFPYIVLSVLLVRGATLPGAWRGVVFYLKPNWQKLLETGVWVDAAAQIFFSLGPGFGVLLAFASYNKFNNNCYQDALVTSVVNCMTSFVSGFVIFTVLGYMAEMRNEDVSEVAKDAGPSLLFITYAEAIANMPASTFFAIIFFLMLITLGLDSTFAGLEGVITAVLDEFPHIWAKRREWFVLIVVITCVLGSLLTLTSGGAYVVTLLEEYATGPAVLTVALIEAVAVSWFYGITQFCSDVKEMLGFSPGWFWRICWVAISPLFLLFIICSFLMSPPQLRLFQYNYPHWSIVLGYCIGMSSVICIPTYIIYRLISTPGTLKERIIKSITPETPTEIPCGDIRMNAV
Briefly: In vitro affinity for serotonin reuptake sites ([3H]-paroxetine binding assay). As to conditions: receptor binding; read-out: 5-HT reuptake binding pKi (converted). The protocol: In Vitro Affinity for Serotonin Reuptake Sites
Affinity of the compounds for serotonin reuptake sites was determined using the receptor binding assay described by E. Habert et al.: “Characterisation of [^3H]-paroxetine binding to rat cortical membranes”, Eur. J. Pharmacol., 118, 107-114, 1985.

Series [3] concerns the target T3, Human dopamine D2,L receptors (Homo sapiens, UniProt P14416).
T3 construct: host or cells: CHO-K1
Briefly: Inhibition of forskolin-induced [3H]-cAMP accumulation in CHO-K1 cells. The format is cell-based. The settings on record: cloned human dopamine D2,L receptors in CHO-K1 cells; full agonist ε=1, full antagonist ε=0. The protocol: Inhibition of Forskolin-Induced [^3H]-cAMP Accumulation
The in vitro functional activity at dopamine-D2 receptors, including the intrinsic activity (ε) of the compounds of the invention was measured by their ability to inhibit forskolin-induced [^3H]-cAMP accumulation.
Human dopamine D2,L receptors were cloned in fibroblast cell line CHO-K1 cells and obtained from Dr. Grandy, Vollum Institute, Portland, Oreg., USA. CHO cells were grown in a Dulbecco's modified Eagle's medium (DMEM) culture medium, supplemented with 10% heat-inactivated fetal calf serum, 2 mM glutamine, 1 mM pyruvate, 5000 units/ml penicillin, 5000 μg/ml streptomycin and 200 μg/ml G-418 at 37° C. in 93% air/7% CO2. For incubation with test compounds, confluent cultures grown in 24 wells plates were used. Each condition or substance was routinely tested in quadruplicate. Cells were loaded with 1 μCi [^3H]-adenine in 0.5 ml medium/well. After 2 hours, cultures were washed with 0.5 ml PBS containing 1 mM of the phosphodiesterase inhibitor isobutylmethylxanthine (IBMX) and incubated for 20 min with 0.5 ml PBS containing 1 mM IBMX and forskolin with or without test compound. After aspiration the reaction was stopped with 1 ml trichloroacetic acid 5% (w/v). […] 0.8 ml Extract was passed over Dowex (50WX-4 200-400 mesh) and aluminumoxide columns, eluted with water and 0.1M imidazole (pH=7.5). Eluates were mixed with 7 ml Insta-gel and radioactivity was counted with a liquid scintillation counter. The conversion of [^3H]-ATP into [^3H]-cAMP was expressed as the ratio in percentage radioactivity in the cAMP fraction as compared to combined radioactivity in both cAMP and ATP fractions, and basal activity was subtracted to correct for spontaneous activity.
Test compounds were obtained as 10 mM stock solutions in 100% DMSO, and diluted in PBS/IBMX to final concentrations. Typically, compounds were used in concentrations that ranged from 10^−10M to 10^−5M. From quadruplicate data counts, the mean was taken as an estimate for drug-induced, receptor-mediated effects at specified second messenger accumulation, expressed as percentage of control values (forskolin-stimulated cAMP accumulation, subtracted by basal activity). By using the non-linear curve-fitting program INPLOT or the Excel-add-in XL-Fit, mean values were plotted against drug concentration (in molar) and a sigmoid curve (four-parameter logistic curve) was constructed. The maximal forskolin-induced stimulated conversion is taken as maximum value and the maximal inhibition (usually at drug concentrations 10^−6 M or 10^−5 M) as minimum and these values were fixed during the fitting process. Thus, concentrations of the compound, causing 50% of the maximally obtained inhibition of forskolin-induced cAMP accumulation (EC50), are averaged over several experiments and presented as mean pEC50±SEM. Antagonist potency is assessed by co-incubating cells with a fixed agonist concentration and specified antagonist concentrations. Curve fitting procedures are identical to those used for estimating EC50 values. Thus IC50 values, i.e. the concentration that is able to achieve 50% of maximal antagonism that can be achieved by this compound. IC50 values are corrected using a Cheng-Prussoff equation, correcting it for agonist concentration and EC50 values that is obtained in the same experiment. Thus, Kb=IC50/(1+[agonist]/EC50, agonist). The corresponding pA2 value is −log (Kb). Concentration-response curve fitting allows estimation of pEC50 values and of maximal achievable effect (intrinsic activity or efficacy (ε). A full receptor agonist has ε=1, a full receptor antagonist has ε=0, and a partial receptor agonist has an intermediate intrinsic activity.

T3 sequence (P14416 whole entry): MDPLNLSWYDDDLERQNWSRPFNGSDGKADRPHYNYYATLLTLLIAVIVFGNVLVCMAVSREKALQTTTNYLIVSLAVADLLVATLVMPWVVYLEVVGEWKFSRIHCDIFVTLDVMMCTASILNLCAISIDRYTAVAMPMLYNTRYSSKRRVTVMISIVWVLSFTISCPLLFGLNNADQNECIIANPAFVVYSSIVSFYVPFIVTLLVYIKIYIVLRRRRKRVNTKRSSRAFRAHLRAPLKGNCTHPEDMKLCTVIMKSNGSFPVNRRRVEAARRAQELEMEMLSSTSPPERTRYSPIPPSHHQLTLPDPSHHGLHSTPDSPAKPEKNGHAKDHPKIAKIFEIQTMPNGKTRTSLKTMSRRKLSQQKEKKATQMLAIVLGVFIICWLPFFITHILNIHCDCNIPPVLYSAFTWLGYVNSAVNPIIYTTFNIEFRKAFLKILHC
T1 sequence (P61169 whole entry): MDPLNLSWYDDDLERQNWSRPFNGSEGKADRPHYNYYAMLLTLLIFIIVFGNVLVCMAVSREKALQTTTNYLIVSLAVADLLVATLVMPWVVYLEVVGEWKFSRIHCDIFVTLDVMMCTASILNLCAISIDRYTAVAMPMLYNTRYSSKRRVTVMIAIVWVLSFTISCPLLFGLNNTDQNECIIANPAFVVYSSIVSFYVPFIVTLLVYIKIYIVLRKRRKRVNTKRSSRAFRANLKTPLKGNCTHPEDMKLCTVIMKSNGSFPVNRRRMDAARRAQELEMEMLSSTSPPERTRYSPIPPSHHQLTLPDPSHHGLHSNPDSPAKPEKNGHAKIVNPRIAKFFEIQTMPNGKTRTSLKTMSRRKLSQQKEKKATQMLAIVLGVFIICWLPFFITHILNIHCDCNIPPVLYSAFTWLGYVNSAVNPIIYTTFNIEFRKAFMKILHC

For the compound `COc1ccc(C#N)cc1OCCCN1CCN(c2cccc3[nH]c(=O)oc23)CC1` [compound 24], the melting point is 189 to 190 °C. Moreover, the Ki in series [1] is 1.26 nM. Further, in series [2], the Ki was 12.6 nM. The “Dopamine-D2 cAMP accum ε (intrinsic activity)” value (shortened to “Dopamine-D2 cAMP accum ε”) in series [3] was found to be 0.86.

As to `CN(CCCN1CCN(c2cccc3[nH]c(=O)oc23)CC1)c1cccc(C#N)c1` (as salt: HCl) [compound 15], the melting point fell in the range of 195 to 196 °C.

With `CN(CCN1CCN(c2cccc3[nH]c(=O)oc23)CC1)c1cccc(C#N)c1` (as salt: HCl) [compound 14], the melting point lay in the range of 230 to 231 °C.

Turning to `N#Cc1cccc(SCCCCN2CCN(c3cccc4[nH]c(=O)oc34)CC2)c1` (as salt: HCl) [compound 20], the melting point was 168 to 170 °C.

For `CN(CCN1CCN(c2cccc3[nH]c(=O)oc23)CC1)c1cccc(C#N)c1` [compound 14], the Ki was 15.8 nM in series [1] and 1 nM in series [2]. Besides, in series [3], the “Dopamine-D2 cAMP accum ε” value turned out to be 0.57.

In the case of `Cn1c(=O)oc2c(N3CCN(CCCCOc4cccc(F)c4)CC3)cccc21` [compound 31], the melting point lay in the range of 95 to 97 °C. Further, the Ki in series [1] was 63.1 nM. Further, the Ki in series [2] is 5.01 nM. In addition, the “Dopamine-D2 cAMP accum ε” value in series [3] worked out at 0.56.

Regarding `O=c1[nH]c2cccc(N3CCN(CCCCOc4cccc(F)c4)CC3)c2o1` [compound 9], the melting point lay within 153 to 155 °C. Further, the Ki in series [1] is 6.31 nM. For the same compound, in series [2], the Ki was 100 nM. In series [3], the “Dopamine-D2 cAMP accum ε” value is 0.64.

`N#Cc1cccc(OCCCN2CCN(c3cc(Cl)cc4[nH]c(=O)oc34)CC2)c1` [compound 26]: the Ki in series [1] and in series [2] was 10 nM each time. Also, the “Dopamine-D2 cAMP accum ε” value in series [3] amounted to 0.79.

`O=c1[nH]c2cccc(N3CCN(CCCOc4cccc(C(F)(F)F)c4)CC3)c2o1` [compound 17] showed a melting point of 140 to 142 °C. Further, the Ki in series [1] was 25.1 nM. Besides, the Ki in series [2] is 50.1 nM. Further, the “Dopamine-D2 cAMP accum ε” value in series [3] was 0.51.

For the compound `CN(CCCN1CCN(c2cccc3[nH]c(=O)oc23)CC1)c1cccc(C#N)c1` [compound 15], the Ki is 6.31 nM in series [1] and 0.794 nM in series [2]. Further, the “Dopamine-D2 cAMP accum ε” value in series [3] was determined as 0.61.

In turn, `N#Cc1cccc(OCCCCN2CCN(c3cccc4[nH]c(=O)oc34)CC2)c1` [compound 6] yielded a melting point of 165 to 168 °C. Further, the Ki in series [1] was 1 nM. In series [2], the Ki is 3.98 nM. The “Dopamine-D2 cAMP accum ε” value in series [3] was found to be 0.76.

For `N#Cc1cccc(OCCCN2CCN(c3cc(Cl)cc4[nH]c(=O)oc34)CC2)c1` (as salt: HCl) [compound 26], the melting point was in the range of 251 to 254 °C.

In the case of `CN(CCCCN1CCN(c2cccc3c2oc(=O)n3C)CC1)c1cccc(C#N)c1` [compound 35], the melting point was in the range of 87 to 89 °C. The Ki in series [1] was 100 nM. Moreover, the Ki in series [2] is 0.631 nM. Further, the “Dopamine-D2 cAMP accum ε” value in series [3] was determined as 0.55.

In the case of `N#Cc1cccc(SCCCCN2CCN(c3cccc4[nH]c(=O)oc34)CC2)c1` [compound 20], the Ki was 3.98 nM in series [1] and 3.16 nM in series [2]. Moreover, the “Dopamine-D2 cAMP accum ε” value in series [3] is 0.98.
